Publication PMC12040169 (PLOS Biology, 2025)

Experiment: in vitro
Conditions: human, hela cells, % viability

Point of comparison: `CCNC(=O)C1CCN(C(=O)c2coc(COc3cccc(F)c3)n2)C1` (centres unmarked) [CBK307466], viability at 28.5 h, 10 µM 86.3%. Against it:
- Cc1cnc(CNC(=O)N2CCN(c3ccc(F)cc3)CC2)cn1 [CBK156392] — higher, 93.7%
- CC(C)c1ccc(S(=O)(=O)n2ccn(-c3cccc(C(F)(F)F)c3)c2=O)cc1 [CBK106587] — higher, 93.8%
- O=C(NCCCn1ccnc1)c1cc2c(ccc3ccccc32)oc1=O [CBK263543] — lower, 86%
- CCN1CCN(c2ccc(NC(=O)c3ccc(OCc4ccccc4)cc3)cc2Cl)CC1 [CBK266683] — lower, 78%
- CC(C)c1ccccc1OCC(=O)N1CCCc2c(cnn2C)C1 [CBK285287] — higher, 111%
- Nc1cc(N)nc(SCC(=O)Nc2nonc2N)n1 [CBK267522] — higher, 89.1%
- O=C(CSc1ncnc2scc(-c3ccc(Cl)cc3)c12)Nc1nsc(-c2ccccc2)n1 [CBK266473] — higher, 96.6%
- O=C(CSc1nnnn1C1CC2CCC1C2)Nc1ccnc2ccccc12 (centres unmarked) [CBK267901] — higher, 89.4%
- Cc1ccc(CN(CCCn2ccnc2)Cc2cncn2C)s1 [CBK283106] — higher, 90.2%
- CCN(CC)C(=O)C1CCCN(C(=O)NCC(c2ccccc2)c2ccccc2)C1 (centres unmarked) [CBK156145] — higher, 94.4%
- CCN(CC)CCn1c(=N)n(CC(=O)c2ccc(Cl)c(Cl)c2)c2ccccc21 [CBK263455B] — higher, 91.5%
- Cc1cnc(NC(=O)Cc2ccc(F)cc2)s1 [CBK288249] — higher, 99.9%
- O=C(Nc1ccc(Br)c2cccnc12)c1ccc(COc2ccccc2)cc1 [CBK266062] — higher, 94.2%
- Cc1cc(COc2nccnc2N2CCN(CCCC#N)CC2)no1 [CBK084198] — higher, 93.5%
- CN(c1ccccc1)c1cc(-c2cccc(O)c2)nc2ccnn12 [CBK037121] — higher, 91%
- O=S(=O)(Nc1cccc2nonc12)c1ccccc1Br [CBK062577] — higher, 102%
- N=c1n(CCN2CCCCC2)c2ccccc2n1CC(=O)c1cccc([N+](=O)[O-])c1 [CBK263481B] — higher, 103%
- CCCCN(C)c1c(CC)nc2ccc(C(=O)Nc3ccc(OC)c(OC)c3)cn12 [CBK145445] — higher, 95.5%
- COC(=O)c1cccc2c1ncc1c(=O)nc(N)sc12 [CBK291214] — higher, 101%
- COc1ccc(C(=O)C2=C(O)C(=O)N(Cc3cccnc3)C2c2cccc(OC)c2OC)cc1C (centres unmarked) [CBK264906] — higher, 92.8%
- NNc1ccc(/C=C/c2ccc(NN)cc2S(=O)(=O)O)c(S(=O)(=O)O)c1 [CBK278163N] — higher, 91.1%
- c1ccc(COc2ccccc2-c2cc(N3CCN(c4ccccn4)CC3)ncn2)cc1 [CBK037793] — higher, 97.4%
- COC(=O)c1c(NC(=S)NC(=O)c2c(Br)c(C)nn2C)sc2c1CCCCCC2 [CBK267486] — higher, 94.5%
- COc1cc(-c2cnc3[nH]c(=O)n([C@@H](CO)C(C)C)c3n2)cc(OC)c1OC [CBK064471] — higher, 105%
- CCOC(=O)C(C)N1C(=O)S/C(=C/c2cc(C)n(-c3ccncc3)c2C)C1=O (centres unmarked) [CBK265145] — higher, 99.9%
- Cc1csc(N2CCC(NC3COc4ccc(F)cc4C3)CC2)n1 (centres unmarked) [CBK304751] — higher, 101%
- CSc1ccc(CN2CCN(S(=O)(=O)Cc3ccccc3)CC2)cc1 [CBK264301G] — higher, 94.2%
- FC(F)(F)c1ccc(CN2CCC(Oc3nccnc3OC3CCCCC3)CC2)cc1 [CBK082859T] — higher, 92.1%
- Cc1ccn(-c2ccc(N3CCNCC3)nn2)n1 [CBK304680] — higher, 97.4%
- COc1ccc(COc2nccnc2N2CCCC2)cc1OC [CBK116613] — higher, 94.8%
- COc1ccccc1-c1ccc(C(=O)N(C)CCN(C)C)c(NCC2CC2)n1 [CBK106269] — higher, 96.3%
- CC1=C[C@@H](CNC(=O)c2ccccn2)[C@H](C(C)C)C[C@H]1CC(=O)N1CCCC1 [CBK289207] — higher, 86.5%
- Nc1nc2c(sc(=O)n2[C@@H]2O[C@H](CO)[C@H](O)C2O)c(=O)[nH]1 (some centres unmarked) [CBK201286] — higher, 96%
- Cc1noc(C)c1CCC(=O)N1CC[C@H]2NC(=O)COc3ccccc3C/C=C/C[C@H]2C1 [CBK292115] — higher, 110%
- O=C1COc2ccccc2C/C=C/CC2(CCN(C(=O)CCn3ccnc3)CC2)CN1 [CBK292131] — higher, 102%
- Cc1csc2ncnc(NCCc3ccccn3)c12 [CBK017060] — lower, 67.1%
- COC(=O)[C@H]1CN(C(=O)c2cn(C)nc2C)C[C@@H]1c1ccccc1F [CBK283511] — higher, 88.2%
- CCC(C(=O)NCCCN1CCOCC1)c1ccccc1 (centres unmarked) [CBK265103] — higher, 116%
- CC(C)[C@H]1CN(Cc2ccco2)CCN1Cc1ccccn1 [CBK284275] — higher, 112%
- Cc1cccc(N2C(=O)SC(N(CC(=O)O)c3cccc(C)c3)C2=O)c1 (centres unmarked) [CBK287095] — higher, 87.6%
- CCn1cc(CN2CCCCCC2c2cc(C)no2)c(C)n1 (centres unmarked) [CBK282159] — higher, 95.6%
- CC(C)NC(=O)CCn1c(-c2ccncc2)cc2cccnc21 [CBK284931] — higher, 111%
- O=C(CCS(=O)(=O)c1ccccc1)Nc1ccccc1N1CCNCC1 [CBK028285T] — higher, 99.8%
- COc1ccc(-c2cccc(CC3(C(=O)NCc4cccs4)CCOCC3)c2)cc1 [CBK286514] — higher, 88.5%
- CC1(C)CC(=O)c2sc(NC(=O)c3ccc(Oc4ccccc4)cc3)nc2C1 [CBK144106] — higher, 95.5%
- CCOc1ccccc1NC(=O)CC1Sc2ccc(C(F)(F)F)cc2NC1=O (centres unmarked) [CBK263659] — higher, 95.6%
- CC(C)(C)OC(=O)N1CCN(S(=O)(=O)c2ccc(Cl)c([N+](=O)[O-])c2)CC1 [CBK003165] — higher, 100%
- O=C(/C=C/c1ccc(Br)cc1)N1CCN(Cc2ccc3c(c2)OCO3)CC1 [CBK074434] — higher, 91.5%
- O=C(NCc1ccc(OC2CCNCC2)cc1)c1cccs1 [CBK036353T] — higher, 89.8%
- COc1ccc(CCNC(=O)C2CCCN(S(=O)(=O)c3ccc4ccccc4c3)C2)cc1 (centres unmarked) [CBK269601] — higher, 101%
- Cc1ccc(S(=O)(=O)NCCn2cnc([N+](=O)[O-])n2)cc1 [CBK266270] — higher, 96.3%
- O=c1[nH]c(=O)n([C@H]2C[C@@H](O)[C@@H](CO)O2)cc1O [CBK201317] — higher, 101%
- Cc1cc(C(=O)NCCn2ccnc2C)nc2ccccc12 [CBK281894] — higher, 101%
- CN(C)S(=O)(=O)c1cccc(C(=O)N(Cc2ccc(F)cc2)Cc2ccco2)c1 [CBK267579] — higher, 88.8%
- Cc1ccccc1SCC(C)C(=O)O (centres unmarked) [CBK012292] — lower, 83%
- Cc1nc(CN2CCC(C(=O)c3ccc(F)cc3)CC2)cs1 [CBK149147] — higher, 103%
- CN(C)C(c1ccccc1)c1nnnn1C1CCCCC1 (centres unmarked) [CBK028032] — higher, 105%
- Cc1cc(NS(=O)(=O)c2ccc(Nc3nc(-c4cccs4)cs3)cc2)no1 [CBK262504] — higher, 101%
- Cc1ccc(CSCCNS(=O)(=O)c2ccc3ccccc3c2)cc1 [CBK268048] — higher, 107%
- CC(C)(C)c1cc(C(=O)NCCN)n(Cc2ccc(Cl)cc2Cl)n1 [CBK116631T] — higher, 95.1%
- O=C(c1cc(S(=O)(=O)N2CCOCC2)ccc1Cl)N1CCCCC1 [CBK304377] — higher, 94.1%
- SC1=NC2(CCCC2)NN1c1ccc(Cl)cc1 [CBK288391] — lower, 83.2%
- COc1ccc([C@H]2CN(C(=O)c3ccccn3)[C@@H]3CCCN(C(C)=O)[C@H]23)cc1 [CBK285523] — higher, 91.4%
- CC(C)CNC(=S)N[C@H]1CC[C@@]2(c3cccnc3)CCN(Cc3ccccc3)[C@H]2C1 [CBK028460] — higher, 125%
- CC(C)(O)C#Cc1ccc(C(=O)N2CCCC2C(=O)O)s1 (centres unmarked) [CBK286869] — lower, 79.5%
- Cc1cc(COc2nccnc2OC2CCN(Cc3ccc(Cl)cc3)CC2)no1 [CBK082949T] — lower, 85.7%
- Cc1cc(=O)oc2c1c(C)nn2-c1nn[nH]n1 [CBK266732] — higher, 91%
- S=C(Nc1ccccc1)N(Cc1ccccc1)Cc1ccncc1 [CBK267991] — higher, 96.8%
- O=C(NCc1ccccn1)Nc1ccc2c(c1)OCO2 [CBK267014] — higher, 97.1%
- CCc1nc(CC(=O)NC(C)C(O)c2ccc(F)cc2)cs1 (centres unmarked) [CBK304003] — higher, 86.7%
- CSc1ccc(CNCCc2c[nH]c3ccccc23)cc1 [CBK262126] — higher, 93.4%
- COc1ccc(C)cc1N(CC(=O)Nc1ccccc1C(=O)O)S(C)(=O)=O [CBK264009] — higher, 94.4%
- CCCC/C=C/c1nccnc1NCCCO [CBK038006] — higher, 102%
- CCn1c(C)cc(C(=O)NC2CCN(c3ncccc3C#N)CC2)c1C [CBK306524] — higher, 87.8%
- CNS(=O)(=O)c1ccc(CCC(=O)N(C)Cc2cnn(C)c2)cc1 [CBK305712] — lower, 84.9%
- COCCN1C(=O)C2(CC(=O)N(CCCCC(C)C)C2=O)c2cc(OC)ccc21 (centres unmarked) [CBK075145] — higher, 109%
- COc1cc(OC)cc(C(=O)Nc2nnc(C(F)(F)F)s2)c1 [CBK099828] — higher, 88.7%
- O=C(O)c1[nH]nc2c1COc1ccccc1-2 [CBK266356] — higher, 97.5%
- CC(NC(=O)c1ccc(F)cc1Cl)c1ccccc1 (centres unmarked) [CBK270317] — higher, 89.3%
- O=C(Nc1ccc2c(c1)OCO2)C1CCN(S(=O)(=O)c2ccc(Oc3ccccc3)cc2)CC1 [CBK269648] — lower, 85.1%
- O=C(Nc1ccc(Cn2cncn2)cc1)C1CC2C=CC1C21CC1 (centres unmarked) [CBK281399] — higher, 88.2%
- CCCCN(C=O)c1c(CC)nc2ccc(C(=O)N3CCN(C)CC3)cn12 [CBK145707] — higher, 93.1%
- O=C(NCc1ccco1)[C@@H]1C=CCN1C(=O)Nc1ccccc1Cl [CBK284269] — lower, 84.3%
- O=C(NCCc1ccc(O)cc1)c1ccc2nc[nH]c2c1 [CBK153323] — higher, 106%
- Nc1nonc1C(=O)NCCNCc1ccc(Cl)cc1 [CBK267194] — higher, 101%
- COc1ccccc1N1CCN(CCC(=O)Nc2ccc(Br)c(C)c2)CC1 [CBK264218] — higher, 93.6%
- Cc1cc(COC(=O)Nc2ccc(Cl)cc2)no1 [CBK086560] — higher, 93.4%

Same assay, conditions: human, hela cells, % viability, bulk resorufin, single well

For `O=C(O)c1ccccc1C(=O)N1CCC2(CC1)OCc1cc(-c3ccco3)ccc1O2` [CBK060824], the viability at 28.5 h, 10 µM was 93.6%.
